Assay results: BindingDB's records for patent US20260001833 (The Cleveland Clinic Foundation, 2026)

Molecular target: T1, Choline trimethylamine-lyase (UniProt A0AAJ0YC41)
T1 sequence (A0AAJ0YC41 whole entry): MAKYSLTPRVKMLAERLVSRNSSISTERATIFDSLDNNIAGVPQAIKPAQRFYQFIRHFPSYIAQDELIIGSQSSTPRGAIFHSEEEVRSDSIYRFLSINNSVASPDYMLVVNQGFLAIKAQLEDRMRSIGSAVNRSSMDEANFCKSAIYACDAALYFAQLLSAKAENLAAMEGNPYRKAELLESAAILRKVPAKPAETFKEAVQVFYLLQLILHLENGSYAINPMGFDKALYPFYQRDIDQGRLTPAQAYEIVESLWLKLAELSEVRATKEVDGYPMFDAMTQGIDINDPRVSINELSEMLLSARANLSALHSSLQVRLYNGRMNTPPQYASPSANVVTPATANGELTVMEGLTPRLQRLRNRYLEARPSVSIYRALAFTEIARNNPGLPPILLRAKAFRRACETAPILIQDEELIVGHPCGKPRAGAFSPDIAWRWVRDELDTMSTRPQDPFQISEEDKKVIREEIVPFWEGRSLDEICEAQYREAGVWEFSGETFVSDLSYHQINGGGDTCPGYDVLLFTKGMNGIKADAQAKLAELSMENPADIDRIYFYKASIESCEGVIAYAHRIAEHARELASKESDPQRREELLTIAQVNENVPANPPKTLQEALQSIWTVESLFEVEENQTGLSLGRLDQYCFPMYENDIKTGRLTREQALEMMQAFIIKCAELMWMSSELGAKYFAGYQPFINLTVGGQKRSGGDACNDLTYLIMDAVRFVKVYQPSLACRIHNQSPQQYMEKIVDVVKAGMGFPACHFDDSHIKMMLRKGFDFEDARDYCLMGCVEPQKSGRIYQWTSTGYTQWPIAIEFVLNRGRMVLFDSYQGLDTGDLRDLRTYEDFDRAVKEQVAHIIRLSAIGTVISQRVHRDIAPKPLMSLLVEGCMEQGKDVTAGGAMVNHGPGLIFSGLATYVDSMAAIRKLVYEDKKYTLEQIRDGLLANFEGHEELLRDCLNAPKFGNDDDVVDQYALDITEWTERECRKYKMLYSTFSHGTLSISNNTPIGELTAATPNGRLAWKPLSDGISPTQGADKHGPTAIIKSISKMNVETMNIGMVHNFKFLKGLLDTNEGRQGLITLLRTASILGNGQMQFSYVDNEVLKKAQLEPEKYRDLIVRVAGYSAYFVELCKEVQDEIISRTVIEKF
Assay: In Vitro TMA Inhibition
Description: Choline TMA lyase enzymatic activity assays were conducted to measure the conversion of isotope-labeled d9-choline to d9-TMA. Upon thawing an aliquot of frozen clarified lysate on ice and gentle mixing, clarified lysate was diluted to 5 mg/mL in lysis buffer and the necessary co-factors were added (final concentration: 1 mM SAM, 10 mM NaDT, and 2 mM NADH). Potential inhibitor compounds (typically dissolved in H2O) were serially diluted (10-fold) and added to individual reaction mixtures (done in triplicate). The mixture was then allowed to incubate for at least 15 minutes at 22° C. before the addition of substrate (300 μM final d9-choline) to initiate the reaction, which was carried out for 2 hours at room temperature (22° C.) in the dark in gas tight sealed reaction vials. The reactions were quenched with the addition of 200 μL of 1 M NaOH and 0.5 μM of the internal standard ([13C3 15N1]TMA), vortexing and placement in ice. d9-TMA production was quantified using mass spectrometry by measuring the peak area ratio of the precursor to product ion transition of d9-TMA (m/z 69→49) to the internal standard [13C3 15N1]TMA (m/z 64→47).

C[N+](C)(CF)CCOC(=O)c1ccc(O)cc1 [US20260001833, Compound 3]
IC50: 3.6 µM
